Test results published in US4409210A, “Antibiotic compound” (priority 1982, dated 1983).

What was measured:
Type in all cases: cell-based
[1] = tested on: Clostridium acidiurici A9560; assay: MIC, serial two-fold dilution method (anaerobic); conditions: Clostridium acidiurici A9560; GAM agar medium; inoculum 10^7-10^8
[2] = tested on: Bacillus anthracis IID-115; assay: microbe, parasite or virus in culture; conditions: Bacillus anthracis IID-115; Mueller-Hinton agar; inoculum 10^4
[3] = tested on: Clostridium perfringens A9635; assay: microbe, parasite or virus in culture; conditions: Clostridium perfringens A9635; GAM agar medium; inoculum 10^7-10^8
[4] = tested on: Staphylococcus aureus Smith; assay: MIC, serial two-fold dilution method (aerobic); conditions: Staphylococcus aureus Smith; Mueller-Hinton agar; inoculum 10^4
[5] = tested on: Propionibacterium acnes A22650; assay: MIC, serial two-fold dilution method (anaerobic); conditions: Propionibacterium acnes A22650; GAM agar medium; inoculum 10^7-10^8
[6] = tested on: Staphylococcus aureus A20610; assay: MIC, serial two-fold dilution method (aerobic); conditions: Staphylococcus aureus A20610; Mueller-Hinton agar; inoculum 10^4
[7] = tested on: Bacteroides fragilis A20929; assay: MIC, serial two-fold dilution method (anaerobic); conditions: Bacteroides fragilis A20929; GAM agar medium; inoculum 10^7-10^8
[8] = tested on: Veillonella parvula A20010; assay: MIC, serial two-fold dilution method (anaerobic); conditions: Veillonella parvula A20010; GAM agar medium; inoculum 10^7-10^8
[9] = tested on: Clostridium difficile A21972; assay: MIC, serial two-fold dilution method (anaerobic); conditions: Clostridium difficile A21972; GAM agar medium; inoculum 10^7-10^8
Protocol: (§1) The minimum inhibitory concentration (MIC) of Bu-2517 was determined for a variety of aerobic and anaerobic bacteria by the serial two-fold dilution method using a multi-inoculating apparatus. Mueller-Hinton agar was generally used for aerobic bacteria, GC medium (Eiken) for fastidious aerobic organisms such as streptococci, Neisseria and Haemophilus species, and GAM agar medium (Nissui) for anaerobic bacteria. The inoculum size was adjusted to 10^6 CFU/ml for streptococci, Neisseria and Haemophilus species, 10^4 for other aerobic bacteria and 10^7 -10^8 for all anaerobic organisms. Amphomycin, ampicillin, chloramphenicol, clindamycin, erthromycin, kanamycin and vancomycin were used as reference antibiotics.

[10] = tested on: Clostridium difficile A21675; assay: MIC, serial two-fold dilution method (anaerobic); conditions: Clostridium difficile A21675; GAM agar medium; inoculum 10^7-10^8
Protocol: as §1

[11] = tested on: Clostridium septicum A21869; assay: MIC, serial two-fold dilution method (anaerobic); conditions: Clostridium septicum A21869; GAM agar medium; inoculum 10^7-10^8
Protocol: as §1

[12] = tested on: Clostridium chauvoei A9561; assay: MIC, serial two-fold dilution method (anaerobic); conditions: Clostridium chauvoei A9561; GAM agar medium; inoculum 10^7-10^8
Protocol: as §1

Proteus vulgaris A9436 = assay: MIC, serial two-fold dilution method (aerobic); conditions: Proteus vulgaris A9436; Mueller-Hinton agar; inoculum 10^4
[13] = tested on: Bacteroides fragilis A22053; assay: MIC, serial two-fold dilution method (anaerobic); conditions: Bacteroides fragilis A22053; GAM agar medium; inoculum 10^7-10^8
[14] = tested on: Bacteroides fragilis A20928-1; assay: MIC, serial two-fold dilution method (anaerobic); conditions: Bacteroides fragilis A20928-1; GAM agar medium; inoculum 10^7-10^8
Escherichia coli NIHJ = assay: MIC, serial two-fold dilution method (aerobic); conditions: Escherichia coli NIHJ; Mueller-Hinton agar; inoculum 10^4
[15] = tested on: Peptococcus magnas A21676; assay: MIC, serial two-fold dilution method (anaerobic); conditions: Peptococcus magnas A21676; GAM agar medium; inoculum 10^7-10^8
Micrococcus flavus D-12 = assay: MIC, serial two-fold dilution method (aerobic); conditions: Micrococcus flavus D-12; Mueller-Hinton agar; inoculum 10^4
[16] = tested on: Bacteroides ovatus A22400; assay: MIC, serial two-fold dilution method (anaerobic); conditions: Bacteroides ovatus A22400; GAM agar medium; inoculum 10^7-10^8
[17] = tested on: Peptostreptococcus anaerobius A21905; assay: MIC, serial two-fold dilution method (anaerobic); conditions: Peptostreptococcus anaerobius A21905; GAM agar medium; inoculum 10^7-10^8
[18] = tested on: Staphylococcus aureus #193; assay: MIC, serial two-fold dilution method (aerobic); conditions: Staphylococcus aureus #193; Mueller-Hinton agar; inoculum 10^4
[19] = tested on: Fusobacterium necrophorum A20013; assay: MIC, serial two-fold dilution method (anaerobic); conditions: Fusobacterium necrophorum A20013; GAM agar medium; inoculum 10^7-10^8
[20] = tested on: Klebsiella pneumoniae D-11; assay: MIC, serial two-fold dilution method (aerobic); conditions: Klebsiella pneumoniae D-11; Mueller-Hinton agar; inoculum 10^4
[21] = tested on: Staphylococcus aureus A20394; assay: MIC, serial two-fold dilution method (aerobic); conditions: Staphylococcus aureus A20394; Mueller-Hinton agar; inoculum 10^4
[22] = tested on: Staphylococcus aureus A9601; assay: MIC, serial two-fold dilution method (aerobic); conditions: Staphylococcus aureus A9601; Mueller-Hinton agar; inoculum 10^4
Proteus mirabilis A9554 = assay: MIC, serial two-fold dilution method (aerobic); conditions: Proteus mirabilis A9554; Mueller-Hinton agar; inoculum 10^4
[23] = tested on: Peptostreptococcus intermedius A21881; assay: MIC, serial two-fold dilution method (anaerobic); conditions: Peptostreptococcus intermedius A21881; GAM agar medium; inoculum 10^7-10^8

Amphomycin
minimum inhibitory concentration (MIC) [1]: 3.1 µg/mL | minimum inhibitory concentration (MIC) [2]: 0.8 µg/mL | minimum inhibitory concentration (MIC) [3]: 6.3 µg/mL | minimum inhibitory concentration (MIC) [4]: 3.1 µg/mL | minimum inhibitory concentration (MIC) [5]: 6.3 µg/mL | minimum inhibitory concentration (MIC) [6]: 3.1 µg/mL | minimum inhibitory concentration (MIC) [7]: 50 µg/mL | minimum inhibitory concentration (MIC) [8]: 6.3 µg/mL | minimum inhibitory concentration (MIC) [9]: 25 µg/mL | minimum inhibitory concentration (MIC) [10]: 3.1 µg/mL | minimum inhibitory concentration (MIC) [11]: 6.3 µg/mL | minimum inhibitory concentration (MIC) [12]: 6.3 µg/mL | minimum inhibitory concentration (MIC) (Proteus vulgaris A9436): > 100 µg/mL | minimum inhibitory concentration (MIC) [13]: > 100 µg/mL | minimum inhibitory concentration (MIC) [14]: 25 µg/mL | minimum inhibitory concentration (MIC) (Escherichia coli NIHJ): > 100 µg/mL | minimum inhibitory concentration (MIC) [15]: 6.3 µg/mL | minimum inhibitory concentration (MIC) (Micrococcus flavus D-12): 0.4 µg/mL | minimum inhibitory concentration (MIC) [16]: > 100 µg/mL | minimum inhibitory concentration (MIC) [17]: 3.1 µg/mL | minimum inhibitory concentration (MIC) [18]: 3.1 µg/mL | minimum inhibitory concentration (MIC) [19]: > 100 µg/mL | minimum inhibitory concentration (MIC) [20]: > 100 µg/mL | minimum inhibitory concentration (MIC) [21]: 3.1 µg/mL | minimum inhibitory concentration (MIC) [22]: 3.1 µg/mL | minimum inhibitory concentration (MIC) (Proteus mirabilis A9554): > 100 µg/mL | minimum inhibitory concentration (MIC) [23]: 6.3 µg/mL
